Laboratory results: patent US20080096967A1, “Formulations for Injection of Catecholic Butanes, Including Ndga Compounds, Into Animals” (priority 2005, published 2008)

Columns and labels:
[1] = Solubility of M4N in water-soluble organic solvents (Table 20, visual inspection); type: physicochemical
Procedure: A 100 mL solution of M4N at a concentration of about 25 mg/mL in PEG 300 was made as follows. About 100 mL of PEG 300 were added to a glass beaker containing a stir bar. The beaker was placed on a magnetic plate and the stir bar was set to stir at medium speed. About 2.5 g of M4N were slowly added to the PEG 300 in the center of the beaker with the aid of a spatula to prevent M4N from sticking to the beaker wall. The M4N/PEG 300 mixture was stirred for 24 hr or until all M4N had dissolved or was uniformly suspended without any clumps being present. The M4N/PEG 300 mixture was optionally heated at about 60° C. for about 30 min. (or longer if a larger volume of solution was desired, for example, 1 hr at 60° C. for 500 mL of the M4N/PEG 300 mixture), or longer as needed to ensure complete dissolution of M4N. […] If crystals formed, the M4N/PEG 300 solution could be heated again at 60° C. for about 1 hr, with stirring, on a hot magnetic plate until all M4N was dissolved back in solution. The final M4N/PEG 300 solution was stored at room temperature and was kept protected from light. This process may be scaled up or down to obtain the requisite volume or concentration of M4N. Formulations containing M4N in other PEGs may be similarly made, such as, for example, by substituting PEG 300 in the process described above with PEG 400 or PEG 400 monolaurate.
This process may be scaled up or down to obtain the requisite volume or concentration of M4N and the heating temperature may be increased or decreased to achieve dissolution of M4N. Formulations containing M4N in other water-insoluble lipids combined with non-ionic surfactants, ionic surfactants or water-soluble organic solvents may be similarly made, such as, for example, by substituting sesame oil or Tween® 20 in the process described above with corn oil, olive oil, soybean oil, peppermint oil, Tween® 80, d-alpha-tocopheryl polyethylene glycol 1000 succinate (TPGS), lecithin, PEG 300, PEG 400, PEG 400 monolaurate, glycerol, polyvinylpyrrolidone (“PVP”), propylene glycol (“PG”), or other solubilizing agents, and combinations thereof.

[2] = Compatibility of IV tubing for delivery of M4N (visual inspection and HPLC); conditions: PTFE and fluorelastomer, polypropylene, FEP, polyethylene, platinum cured silicone (small size)
Procedure: In this experiment, various types of tubing were tested for compatibility and for optimizing intravenous delivery of M4N. The tests on compatibility were based on visual inspection and HPLC (high pressure liquid chromatography) analysis.
The visual inspection was conducted as follows: About 5 mL of a formulation to be tested (“formulated material”) were passed through a tubing of about 20 cm in length. The formulated material was kept inside the tube for about 24 hr at room temperature (25° C.). The formulated material was then circulated several times (about 5 times, for example) through the tubing and was collected in a beaker or a collection tube. The formulated material was carefully inspected for precipitates or particulates present, including by holding the beaker or collection tube against a white background followed by a dark background.
The compatibility test using HPLC analysis varied in the methodology depending on the tubing being tested, the length of time and the purpose of the tubing. This test measured the amount of M4N in solution before and after circulation through different tubing.

COc1ccc(C[C@@H](C)[C@@H](C)Cc2ccc(OC)c(OC)c2)cc1OC [Formulation M4N, meso-1,4-bis(3,4-dimethoxyphenyl)-2,3-dimethylbutane]
Dissolution After Heating ([1]; 40% Propylene Glycol, 10% Ethanol, M4N 10 mg/mL, temperature not given): N
Stability Time at Room Temperature ([1]; Ethanol 100%, M4N 1 mg/mL): >3 days
Dissolution After Heating ([1]; Ethanol 100%, M4N 10 mg/mL, heating at 37° C.): N at 37 °C
Dissolution After Heating ([1]; Glycerol 100%, M4N 1 mg/mL, heating at 70° C.): Y at 70 °C
Dissolution After Heating ([1]; Glycerol 100%, M4N 10 mg/mL, heating at 70° C.): Y at 70 °C
Dissolution After Heating ([1]; Glycerol 100%, M4N 20 mg/mL, heating at 70° C.): Y at 70 °C
Dissolution After Heating ([1]; PEG 300 33%, M4N 10 mg/mL, heating at 50° C.): N at 50 °C
Stability Time at Room Temperature ([1]; PEG 300 100%, M4N 25 mg/mL): <7 days
Dissolution After Heating ([1]; PEG 300 100%, M4N 25 mg/mL, heating at 50° C.): Y at 50 °C
Stability Time at Room Temperature ([1]; PEG 300 100%, M4N 30 mg/mL): <3 days
Dissolution After Heating ([1]; PEG 300 100%, M4N 30 mg/mL, heating at 50° C.): Y at 50 °C
Stability Time at Room Temperature ([1]; PEG 300 100%, M4N 40 mg/mL): <1 days
Dissolution After Heating ([1]; PEG 300 100%, M4N 40 mg/mL, heating at 50° C.): Y at 50 °C
Stability Time at Room Temperature ([1]; PEG 300 100%, M4N 50 mg/mL): <1 days
Dissolution After Heating ([1]; PEG 300 100%, M4N 50 mg/mL, heating at 60° C.): Y at 60 °C
Dissolution After Heating ([1]; PEG 300 100%, M4N 100 mg/mL, heating at 60° C.): Y at 60 °C
Dissolution After Heating ([1]; PEG 400 5%, M4N 10 mg/mL, heating at 50° C.): N at 50 °C
Stability Time at Room Temperature ([1]; PEG 400 100%, M4N 25 mg/mL): <7 days
Dissolution After Heating ([1]; PEG 400 100%, M4N 25 mg/mL, heating at 50° C.): Y at 50 °C
Stability Time at Room Temperature ([1]; PEG 400 100%, M4N 30 mg/mL): <3 days
Dissolution After Heating ([1]; PEG 400 100%, M4N 30 mg/mL, heating at 50° C.): Y at 50 °C
Stability Time at Room Temperature ([1]; PEG 400 100%, M4N 40 mg/mL): <1 days
Dissolution After Heating ([1]; PEG 400 100%, M4N 40 mg/mL, heating at 50° C.): Y at 50 °C
Stability Time at Room Temperature ([1]; PEG 400 100%, M4N 50 mg/mL): <1 days
Dissolution After Heating ([1]; PEG 400 100%, M4N 50 mg/mL, heating at 60° C.): Y at 60 °C
Dissolution After Heating ([1]; PEG 400 100%, M4N 100 mg/mL, heating at 60° C.): Y at 60 °C
Dissolution After Heating ([1]; PEG 400 monolaurate 100%, M4N 20 mg/mL, heating at 50° C.): Y at 50 °C
Dissolution After Heating ([1]; PEG 400 monolaurate 100%, M4N 50 mg/mL, heating at 50° C.): Y at 50 °C
Dissolution After Heating ([1]; PVP 15%, M4N 1 mg/mL, heating at 90° C.): N at 90 °C
Dissolution After Heating ([1]; PVP 15%, M4N 10 mg/mL, heating at 90° C.): N at 90 °C
Stability Time at Room Temperature ([1]; Propylene Glycol 100%, M4N 1 mg/mL): <1 days
Dissolution After Heating ([1]; Propylene Glycol 100%, M4N 1 mg/mL, heating at 55° C.): Y at 55 °C
Stability Time at Room Temperature ([1]; Propylene Glycol 100%, M4N 10 mg/mL): <1 days
Dissolution After Heating ([1]; Propylene Glycol 100%, M4N 10 mg/mL, heating at 55° C.): Y at 55 °C
Stability Time at Room Temperature ([1]; Propylene Glycol 100%, M4N 20 mg/mL): <1 days
Dissolution After Heating ([1]; Propylene Glycol 100%, M4N 20 mg/mL, heating at 55° C.): Y at 55 °C
compatibility of tubing for delivery of M4N (threshold about 90% of M4N remaining in solution) [2]: compatible
